System: MazF-mt3(Δ16–22)
Format: biochemical, Mycobacterium tuberculosis
Details: FAM-labeled 13-nt RNA substrate; Figure 4B, Figure S9

MazE-mt3 α3–α4: peptide corresponding to the last two helices (α3-α4, Leu46-Trp82) of MazE-mt3; cocrystallized with MazF-mt3 (PDB 8ZWS) (LTGQIDRALESIHGTDEAEALAVANAYRVLETMDDEW)
inhibitory effect against the loop-truncated MazF-mt3 enzyme compared with the full-length antitoxin: strong inhibitory effect comparable to that of the full-length MazE-mt3

— publication PMC11394972 (International Journal of Molecular Sciences, 2024)
